Data as given in BindingDB's records for doi:10.1021/jm000940u (Aventis Pharma, 2000).

Legend:
[1] = target: T1, Serine protease 1 (Bos taurus, UniProt P00760); experiment: Enzyme Assay and Determination of the Inhibition Constants.; conditions: pH 7.5; 22 °C
T1 sequence (P00760 whole entry): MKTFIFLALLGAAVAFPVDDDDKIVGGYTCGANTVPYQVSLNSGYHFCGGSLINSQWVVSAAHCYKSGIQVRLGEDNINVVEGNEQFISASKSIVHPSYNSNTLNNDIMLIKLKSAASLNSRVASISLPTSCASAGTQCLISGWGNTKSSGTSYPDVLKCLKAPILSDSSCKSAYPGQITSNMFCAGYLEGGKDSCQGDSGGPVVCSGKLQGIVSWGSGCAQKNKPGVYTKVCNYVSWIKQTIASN

[2] = target: Prothrombin (Homo sapiens, UniProt P00734); experiment: as above; conditions: pH 7.5; 22 °C

Compound | Ki [1] [µM] | Ki [2] [µM]
Nc1nccc2ccc(CN3CC[C@H](NS(=O)(=O)c4cc5ncccc5s4)C3=O)cc12 [N-[(3S)-1-[(1-aminoisoquinolin-7-yl)methyl]-2-oxopyrrolidin-3-yl]thieno[3,2-b]pyridine-2-sulfonamide] | > 2.9 | > 4
O=C1[C@@H](NS(=O)(=O)c2cc3ncccc3s2)CCN1Cc1cc2ccncc2[nH]1 [N-[(3S)-1-(4,7-diazabicyclo[4.3.0]nona-2,4,8,10-tetraen-8-ylmethyl)-2-oxo-pyrrolidin-3-yl]-7-thia-2-azabicyclo[4.3.0]nona-2,4,8,10-tetraene-8-sulfonamide] | > 2.9 | > 4
N=C(N)c1ccc(O)c(CN2CC[C@H](NS(=O)(=O)c3cc4ncccc4s3)C2=O)c1 |  | > 4
